In ChEMBL document CHEMBL1144605, “Discovery of an androgen receptor modulator pharmacophore based on 2-quinolinones” (Bioorg Med Chem Lett, 2007):

Columns and labels:
Androgen receptor [1] = target: T1, Androgen receptor (Homo sapiens, UniProt P10275); assay: biochemical
T1 sequence (P10275 whole entry): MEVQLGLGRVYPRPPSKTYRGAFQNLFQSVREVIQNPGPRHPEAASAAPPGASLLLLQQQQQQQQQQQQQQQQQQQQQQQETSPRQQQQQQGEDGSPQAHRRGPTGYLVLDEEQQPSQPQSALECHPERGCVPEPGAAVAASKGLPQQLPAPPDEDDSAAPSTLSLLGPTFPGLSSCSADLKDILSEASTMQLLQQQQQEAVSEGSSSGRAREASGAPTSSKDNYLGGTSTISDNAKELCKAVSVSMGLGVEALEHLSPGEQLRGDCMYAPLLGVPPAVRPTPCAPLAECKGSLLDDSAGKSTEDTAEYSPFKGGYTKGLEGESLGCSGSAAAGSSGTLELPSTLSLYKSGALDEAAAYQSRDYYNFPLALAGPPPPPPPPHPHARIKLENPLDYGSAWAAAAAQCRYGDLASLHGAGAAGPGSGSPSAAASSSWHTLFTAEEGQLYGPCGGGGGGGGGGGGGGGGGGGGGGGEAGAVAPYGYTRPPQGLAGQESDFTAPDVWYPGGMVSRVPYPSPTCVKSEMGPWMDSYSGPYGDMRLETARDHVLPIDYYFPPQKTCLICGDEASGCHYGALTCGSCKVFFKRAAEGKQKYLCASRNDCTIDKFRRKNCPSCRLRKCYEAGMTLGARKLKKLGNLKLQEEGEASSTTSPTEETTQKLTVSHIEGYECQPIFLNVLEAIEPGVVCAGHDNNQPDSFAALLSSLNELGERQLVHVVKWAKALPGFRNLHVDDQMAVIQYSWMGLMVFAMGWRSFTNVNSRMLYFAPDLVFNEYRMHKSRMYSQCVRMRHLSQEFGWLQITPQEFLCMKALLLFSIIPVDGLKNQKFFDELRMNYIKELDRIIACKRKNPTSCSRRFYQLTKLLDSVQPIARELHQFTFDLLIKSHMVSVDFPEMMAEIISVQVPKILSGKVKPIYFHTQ
Description: Binding affinity to human androgen receptor expressed in CV1 cells

Androgen receptor [2] = target: T1, Androgen receptor
Description: Antagonist activity at human androgen receptor expressed in CV1 cells

Androgen receptor [3] = target: T1, Androgen receptor; remark: listed apart in the source
Description: Agonist activity at human androgen receptor expressed in CV1 cells

SMILES | Ki (Androgen receptor [1]) | IC50 (Androgen receptor [2]) | EC50 (Androgen receptor [3])
CC1(C)C=Cc2cc3c(C(F)(F)F)cc(O)nc3cc2N1 | 73 nM | 27 nM | –
CCC1CCc2cc3c(C(F)(F)F)cc(=O)[nH]c3cc2N1 (stereo unspecified) | 11 nM | 14 nM | –
O=c1cc(C(F)(F)F)c2ccc(NC3CCCC3)cc2[nH]1 | 1000 nM | 149 nM | –
O=c1cc(C(F)(F)F)c2ccc(NC3CCCCC3)cc2[nH]1 | 1000 nM | 507 nM | –
O=c1cc(C(F)(F)F)c2ccc(NCc3ccccc3)cc2[nH]1 | 163 nM | 294 nM | –
O=c1cc(C(F)(F)F)c2ccc(NCC(F)(F)F)cc2o1 | – | 50 nM | –
O=c1cc(C(F)(F)F)c2ccc(N(CC(F)(F)F)CC(F)(F)F)cc2o1 | – | 63 nM | 73 nM
CCNc1ccc2[nH]c(=O)cc(C(F)(F)F)c2c1 | – | 111 nM | –
O=c1cc(C(F)(F)F)c2cc(NC3CCCC3)ccc2[nH]1 | 74 nM | 42 nM | –
